Laboratory results reported in paper PMC11177969, “Comprehensive Analyses of the Effects of the Small-Molecule Inhibitor of the UHM Domain in the Splicing Factor U2AF1 in Leukemia Cells” (Research Square, 2024).
pIC50: −log10 of the molar value.

Key:
SPF45-UHM = target: T1, SPF45-UHM (Homo sapiens, UniProt Q96I25); experiment: HTRF assay; format: binding; conditions: Fig. 2C; SD of 2 independent experiments in parentheses
T1 sequence (Q96I25 306-385 limits assumed): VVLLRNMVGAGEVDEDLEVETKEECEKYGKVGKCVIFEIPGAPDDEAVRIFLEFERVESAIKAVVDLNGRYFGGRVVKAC
From the text: (§1) To determine the selectivity of SF1–8 against other homologous UHM domains, we measured the IC50 values of SF1–8 to RBM39-UHM, SPF45-UHM and PUF60-UHM using the HTRF assay.[42] […] In the chemical synthesis (Scheme S1), methylation on the pyrazole group in SF1–8 can occur at the N8 or N9 position (Fig.2C). Although the NMR spectra can be used to infer the methyl group position on the pyrazole, we determined the crystal structure of a SF1–8 precursor to clearly confirm the methyl group is at N9 in SF1–8 (Fig.2C). To further probe the interaction of SF1–8 with U2AF1-UHM, we synthesized SF1–8 analogs and developed the structure activity relationship (SAR) (Fig.2C). […] A longer alkyl group was tolerated at the N8 position but not at the N9 position. […] The crystal structure of a 7c precursor experimentally determined from SCXRD again confirmed the location of the propyl group (Fig. 2C).

PUF60-UHM = target: T2, PUF60-UHM (Homo sapiens, UniProt Q9UHX1); experiment: HTRF assay; format: binding; conditions: Fig. 2C
T2 sequence (Q9UHX1 462-549 limits assumed): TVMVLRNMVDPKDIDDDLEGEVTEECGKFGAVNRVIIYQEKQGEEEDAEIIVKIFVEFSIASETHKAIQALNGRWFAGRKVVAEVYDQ
From the text: as §1

RBM39-UHM = target: T3, RBM39-UHM (Homo sapiens, UniProt Q14498); experiment: HTRF assay; format: binding; conditions: Fig. 2C; SD of 2 independent experiments in parentheses
T3 sequence (Q14498 445-508 limits assumed): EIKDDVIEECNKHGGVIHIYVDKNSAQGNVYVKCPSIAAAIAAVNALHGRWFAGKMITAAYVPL
From the text: as §1

U2AF1-UHM = target: T4, U2AF1-UHM (Homo sapiens, UniProt Q01081); experiment: HTRF assay, inhibition of binding between U2AF1-UHM and U2AF2-ULM; conditions: Fig. 2C; SD of 2 independent experiments in parentheses; read-out: IC50 U2AF1
T4 construct: we screened the CCG fragment library from University of Michigan against the U2AF1-UHM domain using the Thermal Shift Assay (TSA)
T4 sequence (Q01081 65-147 limits assumed): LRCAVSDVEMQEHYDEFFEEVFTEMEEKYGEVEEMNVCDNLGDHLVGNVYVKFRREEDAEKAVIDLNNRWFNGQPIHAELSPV
From the text: TSA data provided no information of the binding site in U2AF1-UHM. To identify the binding sites of both hits to U2AF1-UHM, we synthesized CCG211578 (named Hit1/SF1–8) and CCG210084 (named Hit2/9 in Fig.2C) and asked if they inhibited the binding between U2AF1-UHM and U2AF2-ULM using our previously developed HTRF assay.[42] […] The IC50 values of SF1–8 and Hit2 correlated with the ΔTm values observed in TSA. We have reported that the conserved Trp binding site in U2AF1-UHM dominated the binding affinity between U2AF2-ULM and U2AF1-UH.[42]

Row | pIC50 (SPF45-UHM) | pIC50 (PUF60-UHM) | pIC50 (RBM39-UHM) | pIC50 (U2AF1-UHM) | SMILES
1 | 3.02 | 3.04 | < 3.00 | 3.33 | CCn1nc(C2(C)CCNCC2)cc1O [7b]
2 | 4.21 | 3.27 | 3.51 | 4.28 | CCCn1nc(C2(C)CCNCC2)cc1O [7c]
3 | 3.16 | 2.96 | 3.10 | 3.06 | CC(C)n1nc(C2(C)CCNCC2)cc1O [7d]
4 | 3.28 | < 3.00 | < 3.00 | 3.42 | CCC1(c2cc(O)n(C)n2)CCNCC1 [7e]
5 | 3.33 | 3.26 | < 3.00 | – | Cn1nc(O)cc1C1(C)CCNCC1 [8a]
6 | 3.10 | < 3.00 | < 3.00 | 3.63 | CCn1nc(O)cc1C1(C)CCNCC1 [8b]
